{"source": "paper PMC10005185", "about": "“Structure-guided engineering of a receptor-agonist pair for inducible activation of the ABA adaptive response to drought” (Science Advances, 2023)", "key": {"[1]": {"system": "MAPKKK18 promoter-LUC reporter", "test": "pMAPKKK18-LUC luciferase reporter assay", "format": "in vivo, Arabidopsis thaliana", "conditions": "100 μM, 6 hours", "protocol": "[…]18-LUC seedlings were grown in 24-well plates (25 to 35 seeds per well) filled with 1 ml of liquid MS medium for 7 days. MS medium was replaced with fresh medium supplemented with 100 μM D-luciferin, potassium salt (GoldBio), and the indicated treatments with iSB07, iSB09, or ABA. Seedlings were incubated for 6 hours, and luminescence was recorded with a LAS-3000 imager (Fujifilm) equipped with a charge-coupled device camera using 2-min exposures. Eight-bit images were transformed in rainbow false color and quantified using Fiji. The experiment was repeated at least twice."}, "ABA-responsive markers": {"system": "ABA-responsive markers", "test": "RNA sequencing of ABA-responsive markers", "format": "in vivo, Arabidopsis thaliana", "conditions": "5 μM iSB09, 3 hours", "protocol": "Total RNA was extracted as indicated above. The quality of the samples was verified using Agilent 2100 Bioanalyzer. First-strand cDNA was prepared by an EasyScript One-Step gDNA Removal and cDNA Synthesis SuperMix (TransGen Biotech) with random hexamers. Sequencing of cDNA libraries was performed using the DNB-Seq technology at the Beijing Genomics Institute, producing at least 20 million clean reads per sample of paired-end 100-base pair read lengths. RNA-seq data analysis was carried out by the Bioinformatics core facility at Instituto de Biología Molecular y Celular de […]. After quality analysis of raw reads with FastQC (www.bioinformatics.babraham.ac.uk/projects/fastqc/), and quality trimming and adapter removal of raw reads with cutadapt (http://journal.embnet.org/index.php/embnetjournal/article/view/200), clean read pairs longer than 20 nucleotides were mapped to TAIR10 arabidopsis Col-0 reference genome using HISAT2 with default parameters, and nonuniquely mapped pairs were discarded with SAMtools. The number of read counts that uniquely mapped to each arabidopsis gene (Araport11 annotation) was obtained with HTSeq-count. Genes lacking at least 1 TPM ([…]) in the three replicates of at least one of the two conditions were filtered out, and differential expression analysis of the remaining genes was done with DESeq2. […]"}, "[2]": {"system": "Arabidopsis thaliana plants", "test": "IR thermography of leaf temperature, arabidopsis", "format": "in vivo", "conditions": "transgenic CsPYL1^5m lines and Col-0, 50 μM, 24 hours after spraying", "protocol": "A. thaliana plants were grown in a controlled environment growth chamber at 21°/19°C under 8-hour light/16-hour dark photoperiod at 100 μE m^−2 s^−1. IR thermography images of rosette leaves were acquired with a thermal camera FLIR E95 equipped with a 42° lens, 24 hours after spraying 6-week-old plants with 10 mM MES (pH 5.7) + 0.02% Silwet L-77 plus 50 μM ligand or 0.1% DMSO as a control. Images were processed and quantified with the FLIR tools software. The average temperature of 15 different sections taken from four to six leaves per plant was used for quantification. At least six plants per genotype were analyzed, and the experiments were repeated twice. Statistical analysis was performed using GraphPad Prism 9. T test or ANOVA analysis was carried out to identify statistical significance among datasets."}, "[3]": {"system": "Arabidopsis thaliana seeds (WT Col-0, CsPYL1 and CsPYL1^5m lines)", "test": "Seed germination assay", "format": "in vivo", "conditions": "for IC50: Arabidopsis thaliana, read-out: Germination IC50", "protocol": "For seed germination assays, seeds were stratified in the dark at 4°C for 3 days. Approximately 100 seeds of each genotype were sown on MS plates supplemented with six different ligand concentrations. The experiments were repeated three times. To score seed germination, radical emergence was analyzed at 24 hours after sowing."}, "tomato plants": {"system": "tomato plants", "test": "IR thermography of leaf temperature, tomato", "format": "in vivo, Solanum lycopersicum", "conditions": "10 μM", "protocol": "For experiments using N. benthamiana or S. lycopersium, 1-month-old plants grown under long-day conditions (16-hour light/8-hour dark) were sprayed with 10 mM MES (pH 5.7) + 0.02% Silwet L77 supplemented with either 50 μM ABA, or the indicated concentration of iSB07/iSB09 or 0.1% DMSO as a mock-treated control. IR images were taken using a FLIR E95 thermocamera 1 day after the treatment (for N. benthamiana) or 2 and 5 days (for S. lycopersicum). Quantification was performed using the FLIR tools software on fully expanded leaves by analyzing 10 sections per leaf. At least six plants per genotype and treatment were analyzed in each experiment. Experiments were repeated twice. The average plant temperature ± SD of all the plants for each treatment and genotype was calculated and used to report the increase in temperature produced by each treatment. Statistical comparisons among genotypes were performed by either pairwise t tests or one-way ANOVA.\nFig. S6. QB lacks bioactivity in tomato whereas iSB09 is\n(A) Quantification of the leaf temperature difference at 2 and 5 days after spraying tomato plants with 0.1 % DMSO\n(mock- treated control), 10 µM iSB09 or 10 µM QB.\nAsterisk indicates p<0.001 (Student’s t test). Values show individual points and average ± SD (n=4 replicates for mock and chemical treatments). (B) IR-images of representative tomato plants at 2 days after being treated with 0.1 % DMSO\nPhotographs were taken with white light (leaf panel) or infrared thermography (right panel) using the camera FLIR\nHAB1 phosphatase activity in presence of PYL4. IC50 values for iSB09 or QB-dependent inhibition of HAB1 by AtPYL4. Values (average of duplicates) show PP2C activity after incubation with the indicated concentration of ligand and AtPYL4 at 1:2 ratio (1 µM phosphatase:2 µM receptor).\n(1 picture or pasted object on this page, not shown here)"}, "[4]": {"system": "Arabidopsis thaliana CsPYL1^5m plants", "test": "Drought resistance experiments", "format": "in vivo", "conditions": "50 μM", "protocol": "For drought assays under long-day conditions, seeds from WT Col-0 and pAlligator2-35[…] plants were grown in MS medium for 7 days. Then, seedlings were transferred to individual 0.18-liter pots containing equal amount of moisted soil composed of peat, vermiculite, and perlite at 1:0.5:0.5 ratio (v/v). Plants were grown under long-day conditions in a controlled environment growth chamber at 22°C under 16-hour light/8-hour dark photoperiod under well-watered conditions for 3 weeks. Then, watering was withheld for 14 days. […] The first application was performed the same day the watering was withheld, and the second one was performed 7 days later. Watering was restored and survival rate was measured 6 days after […]. Gravimetric analysis of water loss in pots was performed along the experiment. […] Pots were weighted at 7-day intervals. Pictures of the plants were taken at the beginning of the experiment, 26 days after water deprivation and 12 days after […]. Survival rate and foliar leaf area were measured 12 days after […]. For drought experiments, 6 to 10 plants per genotype and treatment were analyzed in each experiment. The experiment was performed twice."}}, "note": "Read-outs that look alike come from different tables or passages of the source."}
{"smiles": "CCn1c(=O)cc(C)c2cc(CNS(=O)(=O)c3ccccc3)ccc21", "note": "[iSB09]", "values": [{"measurement": "induction of LUC relative to 25 μM ABA", "setting": "[1]", "result": "approximately twofold higher"}, {"measurement": "increase of regulation of ABA-responsive markers in CsPYL1^5m background relative to WT", "setting": "ABA-responsive markers", "result": "8- to 10 fold"}, {"measurement": "leaf temperature by thermal imaging", "setting": "[2]", "result": "increased leaf temperature"}, {"measurement": "IC50", "setting": "[3]; WT Col-0", "result": 4390, "unit": "nM"}, {"measurement": "IC50", "setting": "[3]; line expressing CsPYL1", "result": 1360, "unit": "nM"}, {"measurement": "IC50", "setting": "[3]; line expressing CsPYL1^5m", "result": 290, "unit": "nM"}, {"measurement": "inhibition of seed germination, iSB09 relative to iSB07", "setting": "[3]; plants expressing CsPYL1^5m", "result": "threefold more effective"}, {"measurement": "bioactivity in tomato (leaf temperature)", "setting": "tomato plants; 2 and 5 days after spraying", "result": "active"}, {"measurement": "persistence of the effect on leaf temperature after spraying", "setting": "tomato plants; tomato", "result": "up to 5 days"}, {"measurement": "drought resistance compared to mock-treated plants", "setting": "[4]; CsPYL1^5m plants, long-day conditions", "result": "markedly enhanced drought resistance"}, {"measurement": "soil water consumption", "setting": "[4]; CsPYL1^5m plants, long-day, 10 days after stopping irrigation", "result": 40, "unit": "%"}, {"measurement": "drought resistance compared to mock-treated plants", "setting": "[4]; short-day conditions", "result": "enhanced resistance to drought"}]}
